Laboratory results reported in PubChem BioAssay (NCI).
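Test compounds were applied to cells in 96-well plates for 48 hours at 5 doses. TGI denotes the concentration required for complete inhibition of growth.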

Legend:
Assay in all cases: NCI-60 cell line screen, 48 h
786-0 renal = test system: 786-0 renal
A498 renal = test system: A498 renal
A549 NSCLC = test system: A549 NSCLC
ACHN renal = test system: ACHN renal
BT-549 breast = test system: BT-549 breast
CAKI-1 renal = test system: CAKI-1 renal
CCRF-CEM leukemia = test system: CCRF-CEM leukemia
COLO 205 colon = test system: COLO 205 colon
DU-145 prostate = test system: DU-145 prostate
EKVX NSCLC = test system: EKVX NSCLC
HCC-2998 colon = test system: HCC-2998 colon
HCT-116 colon = test system: HCT-116 colon
HCT-15 colon = test system: HCT-15 colon
HL-60(TB) leukemia = test system: HL-60(TB) leukemia
HOP-62 NSCLC = test system: HOP-62 NSCLC
HOP-92 NSCLC = test system: HOP-92 NSCLC
HS 578T breast = test system: HS 578T breast
HT29 colon = test system: HT29 colon
IGROV1 ovarian = test system: IGROV1 ovarian
K-562 leukemia = test system: K-562 leukemia
KM12 colon = test system: KM12 colon
LOX IMVI melanoma = test system: LOX IMVI melanoma
M14 melanoma = test system: M14 melanoma
MALME-3M melanoma = test system: MALME-3M melanoma
MCF7 breast = test system: MCF7 breast
MDA-MB-231 breast = test system: MDA-MB-231 breast
MDA-MB-435 = test system: MDA-MB-435
MDA-N = test system: MDA-N
MOLT-4 leukemia = test system: MOLT-4 leukemia
NCI-H226 lung = test system: NCI-H226 lung
NCI-H23 lung = test system: NCI-H23 lung
NCI-H460 lung = test system: NCI-H460 lung
NCI-H522 lung = test system: NCI-H522 lung
NCI/ADR-RES ovarian = test system: NCI/ADR-RES ovarian
OVCAR-3 ovarian = test system: OVCAR-3 ovarian
OVCAR-4 ovarian = test system: OVCAR-4 ovarian
OVCAR-5 ovarian = test system: OVCAR-5 ovarian
OVCAR-8 ovarian = test system: OVCAR-8 ovarian
PC-3 prostate = test system: PC-3 prostate
RPMI-8226 leukemia = test system: RPMI-8226 leukemia
SF-268 CNS = test system: SF-268 CNS
SF-295 CNS = test system: SF-295 CNS
SF-539 CNS = test system: SF-539 CNS
SK-MEL-2 melanoma = test system: SK-MEL-2 melanoma
SK-MEL-28 melanoma = test system: SK-MEL-28 melanoma
SK-MEL-5 melanoma = test system: SK-MEL-5 melanoma
SK-OV-3 ovarian = test system: SK-OV-3 ovarian
SN12C renal = test system: SN12C renal
SNB-19 CNS = test system: SNB-19 CNS
SNB-75 CNS = test system: SNB-75 CNS
SR leukemia = test system: SR leukemia
SW-620 colon = test system: SW-620 colon
T-47D breast = test system: T-47D breast
TK-10 renal = test system: TK-10 renal
U251 CNS = test system: U251 CNS
UACC-257 melanoma = test system: UACC-257 melanoma
UACC-62 melanoma = test system: UACC-62 melanoma
UO-31 renal = test system: UO-31 renal

O=C(c1cccc(OCc2ccccc2)c1OCc1ccccc1)N1CCSC1=S
TGI (786-0 renal): > 100 µM | TGI (A498 renal): 80.1 µM | TGI (A549 NSCLC): > 100 µM | TGI (ACHN renal): > 100 µM | TGI (BT-549 breast): > 100 µM | TGI (CAKI-1 renal): > 92.9 µM | TGI (CCRF-CEM leukemia): 24.4 µM | TGI (COLO 205 colon): 26.4 µM | TGI (DU-145 prostate): > 100 µM | TGI (EKVX NSCLC): > 100 µM | TGI (HCC-2998 colon): > 100 µM | TGI (HCT-116 colon): > 100 µM | TGI (HCT-15 colon): > 100 µM | TGI (HL-60(TB) leukemia): 33.1 µM | TGI (HOP-62 NSCLC): > 100 µM | TGI (HOP-92 NSCLC): > 100 µM | TGI (HS 578T breast): > 45.8 µM | TGI (HT29 colon): > 100 µM | TGI (IGROV1 ovarian): > 100 µM | TGI (K-562 leukemia): > 100 µM | TGI (KM12 colon): 36.9 µM | TGI (LOX IMVI melanoma): > 100 µM | TGI (M14 melanoma): > 100 µM | TGI (MALME-3M melanoma): > 72.9 µM | TGI (MCF7 breast): > 100 µM | TGI (MDA-MB-231 breast): > 78.2 µM | TGI (MDA-MB-435): > 100 µM | TGI (MDA-N): > 100 µM | TGI (MOLT-4 leukemia): 38.7 µM | TGI (NCI-H226 lung): > 100 µM | TGI (NCI-H23 lung): 74.9 µM | TGI (NCI-H460 lung): > 100 µM | TGI (NCI-H522 lung): > 58.1 µM | TGI (NCI/ADR-RES ovarian): > 100 µM | TGI (OVCAR-3 ovarian): 62.9 µM | TGI (OVCAR-4 ovarian): > 100 µM | TGI (OVCAR-5 ovarian): > 100 µM | TGI (OVCAR-8 ovarian): > 100 µM | TGI (PC-3 prostate): > 100 µM | TGI (RPMI-8226 leukemia): 43 µM | TGI (SF-268 CNS): > 52.8 µM | TGI (SF-295 CNS): > 100 µM | TGI (SF-539 CNS): > 100 µM | TGI (SK-MEL-2 melanoma): > 75.4 µM | TGI (SK-MEL-28 melanoma): > 100 µM | TGI (SK-MEL-5 melanoma): 31.7 µM | TGI (SK-OV-3 ovarian): > 100 µM | TGI (SN12C renal): > 100 µM | TGI (SNB-19 CNS): > 100 µM | TGI (SNB-75 CNS): 34.2 µM | TGI (SR leukemia): 45.2 µM | TGI (SW-620 colon): > 100 µM | TGI (T-47D breast): > 100 µM | TGI (TK-10 renal): > 100 µM | TGI (U251 CNS): > 100 µM | TGI (UACC-257 melanoma): > 87.7 µM | TGI (UACC-62 melanoma): 42.6 µM | TGI (UO-31 renal): 97.2 µM
